Test results taken from PMC10600239, “Selective MCL-1 inhibitor ABBV-467 is efficacious in tumor models but is associated with cardiac troponin increases in patients” (Communications Medicine, 2023).
Where “and” joins values, the source holds several entries; their conditions need not be identical. Equal values may be shown once. Read-outs that look alike come from different tables or passages of the source. One block for each molecule: values may come before it.

Tests used:
human MCL-1 = human MCL-1 (Homo sapiens, UniProt Q07820); assay: Time-resolved FRET binding assay
Chain of human MCL-1 (Q07820 whole entry): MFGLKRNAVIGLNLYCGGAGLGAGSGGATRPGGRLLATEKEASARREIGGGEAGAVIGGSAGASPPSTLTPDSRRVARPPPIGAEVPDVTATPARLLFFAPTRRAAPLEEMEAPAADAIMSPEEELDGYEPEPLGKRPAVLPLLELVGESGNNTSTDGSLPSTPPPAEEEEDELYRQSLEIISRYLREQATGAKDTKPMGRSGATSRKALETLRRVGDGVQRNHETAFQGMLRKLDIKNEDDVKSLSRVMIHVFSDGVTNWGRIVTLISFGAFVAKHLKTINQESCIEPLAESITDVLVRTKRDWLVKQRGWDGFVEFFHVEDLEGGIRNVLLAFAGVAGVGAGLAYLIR
Description: (§1) Test compounds were serially diluted in DMSO starting at […] (20× starting concentration; 100% DMSO followed by a 1:10 dilution of the compound DMSO plate into assay buffer); 10 µL of the compound in 10% DMSO was then transferred into a 384-well plate (low-volume Corning #3673 assay plate). Glutathione S-transferase (GST)-tagged recombinant BCL-2, BCL-XL, MCL-1, BCL-W, or BCL2-A1 protein (1 nM each) were mixed with 100 nM Oregon Green™-labeled f-BAK peptide probe and 1 nM Tb-labeled anti-GST antibody were mixed. Then 10 µL of a 2× protein/probe/antibody mix was added to each well of increasing concentrations of test compound in assay buffer (20 mM potassium phosphate, pH 7.6, 50 mM NaCl, 1 mM ethylenediaminetetraacetic acid disodium salt dihydrate, 0.05% pluronic acid F-68, 1 mM DL-dithiothreitol) at room temperature (final concentrations listed in Supplementary Table S2). The samples were then mixed on a shaker for 1 min and incubated for an additional 1 h at room temperature. For each assay plate, a probe/antibody and protein/antibody/probe mixture were included as a negative and a positive control, respectively. Fluorescence was measured on the EnVision™ (Perkin Elmer) using a 340/35-nm excitation filter and 520/525- (F-Bak) and 495/510-nm (Tb-labeled anti-glutathione S-transferase [GST] antibody) emission filters. Dissociation constants were determined using Wang’s equation[35]. The time-resolved FRET assay can be performed in the presence of varying concentrations of human serum to determine apparent half-maximal inhibitory concentration after serum protein binding.

BCL-2 = BCL-2 (Homo sapiens, UniProt P10415); assay: Time-resolved FRET binding assay
Chain of BCL-2 (P10415 whole entry): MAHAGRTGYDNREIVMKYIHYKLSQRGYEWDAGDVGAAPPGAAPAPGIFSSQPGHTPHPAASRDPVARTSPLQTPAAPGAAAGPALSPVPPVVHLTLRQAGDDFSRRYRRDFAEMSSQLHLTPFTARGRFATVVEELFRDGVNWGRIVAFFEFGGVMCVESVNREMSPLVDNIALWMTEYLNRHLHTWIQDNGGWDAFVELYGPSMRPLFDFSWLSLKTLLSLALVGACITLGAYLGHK
Description: as §1, with “Binding affinities for MCL-1, BCL-2, BCL-XL, BCL-W, and BCL2-A1 were determined using a time-resolved fluorescence resonance energy transfer (FRET) assay. Test” for “Test”

BCL-XL = BCL-XL (Homo sapiens, UniProt Q07817); assay: Time-resolved FRET binding assay
Chain of BCL-XL (Q07817 whole entry): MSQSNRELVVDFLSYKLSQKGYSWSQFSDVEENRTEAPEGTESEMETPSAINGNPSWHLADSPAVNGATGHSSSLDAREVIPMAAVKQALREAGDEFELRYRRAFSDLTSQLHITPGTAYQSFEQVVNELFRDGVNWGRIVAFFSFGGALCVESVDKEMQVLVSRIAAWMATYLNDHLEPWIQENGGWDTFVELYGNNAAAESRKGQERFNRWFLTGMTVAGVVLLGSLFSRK
Description: as §1, with “Binding affinities for MCL-1, BCL-2, BCL-XL, BCL-W, and BCL2-A1 were determined using a time-resolved fluorescence resonance energy transfer (FRET) assay. Test” for “Test”

H929 cells = assay: In vitro cell viability assay (CellTiter-Glo); assay type: cell-based, human; settings: Homo sapiens
Description: (§2) All cell lines were grown and treated in RPMI 1640 or Dulbecco’s modified Eagle medium (Sigma, St. Louis, MO) supplemented with 10% fetal bovine serum (Gibco) or 10% human serum (Sigma) and maintained in a humidified incubator at 5% CO2 and 37 °C. DLD-1, MV4-11, NCI-H929 (all ATCC, Manassas, VA, USA) and AMO-1 (DSMZ, Braunschweig, Germany) cells were plated 4000 cells per well in 384-well tissue culture plates and treated with compounds of interest for 24 h at 37 °C, 5% CO2 humidified incubator. Each concentration was tested in duplicate at least 3 separate times. Adherent cells were allowed to adhere overnight prior to treatment. Alternatively, AMO-1 or NCI-H929 cells were treated with ABBV-467 for the indicated contact times (1–24 h) at 37 °C in a 5% CO2 humidified incubator and washed 3 times with compound-free media prior to incubation for the remainder of a 24-h treatment period. Cell viability was subsequently determined using CellTiter-Glo (Promega, Madison, WI, USA) according to the manufacturer’s instructions.
(§3) For in vitro viability assays, mean EC50 and EC90 values were determined from the resulting dose-response curves from at least 3 independent experiments, and depict the mean ± standard error of the mean.
(§4) Fig. 2 Apoptosis induced by ABBV-467 is mechanism based and induces cell death in MCL-1-dependent cell lines after short target engagement periods. H929 cells were treated with ABBV-467 in the presence or absence of the pan-caspase inhibitor z-VAD-fmk (50 µM) and the impact on caspase-3/7 activation (a), mitochondrial membrane potential (ΔΨm; b), and apoptosis (c) determined. Alternatively, BAK-deficient SKBR3 cells were treated with ABBV-467 for 24 h and the impact on cell viability compared with the parental cell line, determined by CellTiter-Glo. Inset depicts a western blot of BAK and BAX expression in SKBR3 cell variants using GAPDH as a loading control. Each of the 3 proteins were probed on separate blots (d). Data in (a–d) are presented as the mean ± standard error of the mean. H929 and AMO-1 cells were treated with ABBV-467 at the indicated concentrations and the impact on caspase-3/7 activation and viability (DRAQ7-positive) cells determined over time by Incucyte®. Data are presented as the mean ± standard deviation (e). H929 or AMO-1 cells were cultured in media containing 10% human serum and treated with ABBV-467 for the indicated contact times. Cells were subsequently washed 3 times with drug-free media and incubated in drug-free media for the remainder of the 24-h treatment period at 37 °C before cell viability was determined by CellTiter-Glo. Mean EC50 and EC90 values were determined from the resulting dose-response curves from at least 3 independent experiments, each assessed in quadruplicate, and depict the mean ± standard error of the mean. Presented ABBV-467 dose-response curves in H929 and AMO-1 cells were compiled from at least 3 independent experiments (f).

MV4-11 cells = assay: In vitro cell viability assay (CellTiter-Glo); assay type: cell-based, human; settings: Homo sapiens
Description: as §2, §3

DLD-1 cells = assay: In vitro cell viability assay (CellTiter-Glo); assay type: cell-based, human
Description: as §2, §3

AMO-1 cells = assay: In vitro cell viability assay (CellTiter-Glo); assay type: cell-based, human; settings: Homo sapiens
Description: as §2, §3, §4

BCL-W = target: T1, BCL-W (Homo sapiens, UniProt Q92843); assay: Time-resolved FRET binding assay
T1 sequence (Q92843 1-193): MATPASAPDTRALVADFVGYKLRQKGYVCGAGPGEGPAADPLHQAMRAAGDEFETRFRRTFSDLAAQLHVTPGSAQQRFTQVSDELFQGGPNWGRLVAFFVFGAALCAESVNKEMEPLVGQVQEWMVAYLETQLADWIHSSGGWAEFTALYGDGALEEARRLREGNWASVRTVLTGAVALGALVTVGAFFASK
Description: as §1, with “Binding affinities for MCL-1, BCL-2, BCL-XL, BCL-W, and BCL2-A1 were determined using a time-resolved fluorescence resonance energy transfer (FRET) assay. Test” for “Test”

BCL2-A1 = target: T2, BCL2-A1 (Homo sapiens, UniProt Q16548); assay: Time-resolved FRET binding assay
T2 sequence (Q16548 1-175): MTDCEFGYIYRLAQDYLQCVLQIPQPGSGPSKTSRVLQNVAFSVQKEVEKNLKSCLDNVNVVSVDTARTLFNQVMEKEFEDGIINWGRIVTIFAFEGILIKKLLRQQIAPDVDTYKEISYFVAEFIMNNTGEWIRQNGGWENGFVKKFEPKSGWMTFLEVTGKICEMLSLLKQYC
Description: as §1, with “Binding affinities for MCL-1, BCL-2, BCL-XL, BCL-W, and BCL2-A1 were determined using a time-resolved fluorescence resonance energy transfer (FRET) assay. Test” for “Test”

[1] = TR-FRET, arithmetic mean, read-out: Arithmetic Mean Ki, BCL-2
[2] = TR-FRET, individual determinations, read-out: Individual Ki, BCL-2
[3] = read-out: TR-FRET, Ki, nM BCL-2
[4] = TR-FRET, arithmetic mean, read-out: Arithmetic Mean Ki, BCL-XL
[5] = TR-FRET, individual determinations, read-out: Individual Ki, BCL-XL
[6] = read-out: TR-FRET, Ki, nM BCL-XL

- Ki (human MCL-1; TR-FRET, individual determinations, read-out: Individual Ki, MCL1): 2.48 nM and 5.01 nM and 9.14 nM
- Ki (human MCL-1; read-out: TR-FRET, Ki, nM MCL-1): 5.54 nM
- Ki (BCL-2; [1]): > 1200 nM
- Ki (BCL-2; [2]): > 1200 nM
- Ki (BCL-2; [3]): > 1200 nM
- Ki (BCL-XL; [4]): > 660 nM
- Ki (BCL-XL; [5]): > 660 nM
- Ki (BCL-XL; [6]): > 660 nM
Structure (SMILES): COc1ccccc1-c1nccc(COc2ccc3cc2CC(C(=O)O)Oc2ncnc4sc(-c5ccc(F)cc5)c(c24)-c2ccc(c(Cl)c2C)N(CCN2CCN(C)CC2)C3)n1 (stereo not shown) [Compound 2]

- EC50 (H929 cells; NCI-H929, 24 h, read-out: H929 EC50 (nM, 10% FBS), 10% FBS, 24 h continuous treatment): 4.75 nM
- EC50 (H929 cells; NCI-H929, NCI-H929, arithmetic mean, read-out: Arithmetic Mean EC50 µM): 4.75 nM
- EC50 (MV4-11 cells; MV4-11, 24 h, read-out: MV4-11 EC50 (nM, 10% FBS), 10% FBS, 24 h continuous treatment): 10.9 nM
- EC50 (MV4-11 cells; MV4-11, MV4-11, arithmetic mean, read-out: Arithmetic Mean EC50 µM): 10.9 nM
- EC50 (DLD-1 cells; DLD-1, individual determinations, listed as MIK665, read-out: Individual EC50): > 1000 nM and > 10000 nM and 4770 nM and 3350 nM and 6620 nM and 4370 nM and 4270 nM and 5810 nM and 4060 nM
- EC50 (DLD-1 cells; Homo sapiens, DLD-1, 24 h, read-out: DLD-1 EC50 (nM, 10% FBS), 10% FBS, 24 h continuous treatment): 4750 nM
- Ki (BCL-W; TR-FRET, arithmetic mean, read-out: Arithmetic Mean Ki, BCL-W): > 468 nM
- Ki (BCL-W; TR-FRET, individual determinations, read-out: Individual Ki, BCL-W): > 468 nM
- Ki (BCL-W; read-out: TR-FRET, Ki, nM BCL-W): > 468 nM
- Ki (BCL-2; [1]): 599 nM
- Ki (BCL-2; [2]): 319 nM and 376 nM and 955 nM and 745 nM
- Ki (BCL-2; [3]): 599 nM
- Ki (BCL2-A1; TR-FRET, arithmetic mean, read-out: Arithmetic Mean Ki, BCL2-A1): > 468 nM
- Ki (BCL2-A1; TR-FRET, individual determinations, read-out: Individual Ki, BCL2-A1): > 468 nM
- Ki (BCL2-A1; read-out: TR-FRET, Ki, nM BCL2-A1): > 468 nM
- Ki (BCL-XL; [4]): > 660 nM
- Ki (BCL-XL; [5]): > 660 nM
- Ki (BCL-XL; [6]): > 660 nM
Structure (SMILES): COc1ccccc1-c1nccc(COc2ccccc2CC(Oc2ncnc3sc(-c4ccc(F)cc4)c(-c4ccc(OCCN5CCN(C)CC5)c(Cl)c4C)c23)C(=O)O)n1 (stereo not shown) [Compound 1, reference compound]
- EC50 (AMO-1 cells; AMO1, 24 h, read-out: AMO-1 EC50 (nM, 10% FBS), 10% FBS, 24 h continuous treatment): 2.06 nM
- EC50 (AMO-1 cells; AMO1, AMO-1, arithmetic mean, read-out: Arithmetic Mean EC50 µM): 2.06 nM
